Where “and” joins values, the source holds several entries; their conditions need not be identical. Equal values may be shown once.
Tests used:
[1] = tested on: tobacco and other tested plants; experiment: 13 amino acid peptide: HR in tobacco and other tested plants; format: in vivo
[2] = tested on: tomato seeds (variety, Marglobe); experiment: 13 amino acid peptide: tomato seedling growth after seed soak; format: in vivo
Procedure: The synthesized peptide was resuspended in 10 ml of 5 mM potassium phosphate buffer and, then, diluted to 1 and 100 ng/ml with the same buffer. About 100 tomato seeds (variety, Marglobe) were submerged in 20 ml of peptide solution overnight. The soaked seeds were planted in an 8 inch pot with artificial soil. Seeds soaked in the buffer without the peptide were used as a control. After seedlings emerged and the first two true leaves fully expanded, the height of the tomato seedlings was recorded.

[3] = tested on: parsley cells; settings: H+/Ca2+ influxes, K+/Cl− effluxes, active oxygen production, SAR gene induction, phytoalexin accumulation; cited from earlier work
[4] = tested on: TMV; experiment: Induction of systemic acquired resistance (SAR), TMV lesions on tobacco; format: in vivo, Nicotiana tabacum; settings: oligopeptides, Table 5; reduction in TMV lesions vs buffer control
[5] = tested on: tomato (Lycopersicon spp. cv. Marglobe); experiment: Induction of growth enhancement (GE/PGE), tomato seed soak; format: in vivo; settings: oligopeptides, Table 5; tomato height vs buffer
Procedure: Sixty tomato (Lycopersicon spp. cv. […] The next morning, the sixty seeds were sewn in three pots and 12-15 days later and again 18-20 days later the heights of the 10 tallest tomato plants per pot were measured and compared with the heights of the control plants treated only with phosphate buffer. Analyses were done on the heights to determine if there was a significant difference in the height of the plants treated with the truncated proteins compared with the buffer control, and thereby determine whether the proteins induced growth enhancement.

[6] = tested on: tomato; experiment: HrpZ fragments: growth enhancement (PGE); format: in vivo; settings: % greater height than buffer sprayed plants; 152-294 preparation diluted 40-fold, 190-294 diluted 8-fold
Procedure: To test whether non-HR eliciting fragments derived from HrpZ, the hypersensitive response elicitor from Pseudomonas syringae pv. syringae, is able to induce disease resistance, several fragment constructs were made and the expressed fragment proteins were tested for HR elicitation and disease resistance induction in tobacco and growth promotion in tomato.
(§1) The fragment preparations were then tested for inducing resistance to TMV and for growth enhancement. Due to the difference in concentration of the HrpZ fragments, the 152-294 preparation was diluted 40-fold and the 190-294 preparation was diluted 8-fold. […] In contrast, the 152-294 aa fragment reduced the number of TMV lesions by only 55%. As also shown in Table 8, plants treated with the 152-294 aa fragment grew 4.64% more than buffer treated plants, while plants treated with the 190-294 aa fragment grew 2.62% more than the buffer treated plants.

[7] = tested on: TMV; experiment: HrpZ fragments: induced resistance to TMV in tobacco; format: in vivo; settings: % reduction in TMV lesions in unsprayed leaf of tobacco; 152-294 preparation diluted 40-fold, 190-294 diluted 8-fold
Procedure: as §1

[8] = tested on: tobacco leaves; experiment: HR test of HrpZ fragment preparations in tobacco leaves; format: in vivo; parameters: key to HR elicitation: +, elicits HR in tobacco leaves; −, no HR in tobacco leaves
Procedure: Amino acid fragments 152-294 and 190-294 were chosen for further analysis and characterization. It was expected that the fragment 152-294 contained a domain that elicited the HR, while fragment 190-294 contained no domain that elicited the HR. The cultures were spun down, and the bacteria resuspended in 40 ml of 10 mM Tris pH 8.0. Twenty μl of antifoam and 40 μl of 200 mM PMSF were added, and the bacteria was sonicated to break open the cells. The bacterial debris was removed by centrifugation, and the supernatant was placed in a boiling water bath for 10 min. The precipitate was removed by centrifugation and the supernatant, a crude protein preparation, was retained for tests.
Fifteen μl of each supernatant was run on a gel and stained to determine if the protein was present. It was estimated that about five times as much of the 152-294 fragment was present as the 190-294 fragment. Several dilutions of each preparation were infiltrated into tobacco leaves on two plants for HR tests (Table 7).

[9] = cited from earlier work

Molecule: NH2-Val-Trp-Asn-Gln-Pro-Val-Arg-Gly-Phe-Lys-Val-Tyr-Glu-COOH (H-VWNQPVRGFKVYE-OH; listed as Phytophthora megasperma) [13 amino acid peptide, oligopeptide derived from the 42 kDa glycoprotein elicitor of Phytophthora megasperma]
- HR elicitation [1]: not able to elicit the HR
- % Change ([2]; height increase vs buffer, 100 ng/ml peptide): 12.6%
- Height of seedlings (cm) ([2]; individual tomato seedlings, seeds soaked overnight in 100 ng/ml peptide, listed as Peptide Solution): 6.5 cm (5×) and 6.0 cm (5×)
- Average (cm) ([2]; mean seedling height, 100 ng/ml peptide): 6.25 cm
- defense response in parsley cells [3]: sufficient to elicit a complex defense response

Molecule: oligo 121-150: synthesized oligopeptide, amino acids 121-150 of SEQ ID NO: 23 (TTSTTNSPLDQALGINSTSQNDDSTSGTDS; listed as Erwinia amylovora)
- TMV efficacy [4]: 60.0%
- PGE ht>buffer [5]: 17.3%

Molecule: oligo 137-156: synthesized oligopeptide, amino acids 137-156 of SEQ ID NO: 23 (STSQNDDSTSGTDSTSDSSD; listed as Erwinia amylovora)
- TMV efficacy [4]: −87.7%
- PGE ht>buffer [5]: 7.4%

Molecule: oligo 137-166: synthesized oligopeptide, amino acids 137-166 of SEQ ID NO: 23 (STSQNDDSTSGTDSTSDSSDPMQQLLKMFS; listed as Erwinia amylovora)
- TMV efficacy [4]: 61.2%
- PGE ht>buffer [5]: 12.0%

Molecule: oligo 150-179: synthesized oligopeptide, amino acids 150-179 of SEQ ID NO: 23 (STSDSSDPMQQLLKMFSEIMQSLFGDGQDG; listed as Erwinia amylovora)
- TMV efficacy [4]: 72.9%
- PGE ht>buffer [5]: 10.1%

B1: HrpZ Fragment 190-294: amino acids 190-294 of HrpZ (SEQ ID NO: 31), calmodulin-binding peptide fusion, crude preparation (protein, listed as Pseudomonas syringae)
chain: DIIGQQLGNQQSDAGSLAGTGGGLGTPSSFSNNSSVMGDPLIDANTGPGDSGNTRGEAGQLIGELIDRGLQSVLAGGGLGTPVNTPQTGTSANGGQSAQDLDQLL
modifications: calmodulin-binding peptide fusion
- PGE(% > buffer ht) [6]: 2.62%
- TMV (% efficacy) [7]: 85% and 85.25%
- HR elicitation (in words) ([8]; dilutions infiltrated into tobacco leaves): did not
- HR test, dilution 1:2 ([8]; preparation diluted 1:2 with MilliQ water, result for each of two plants): −,−
- HR test, dilution 1:5 ([8]; preparation diluted 1:5 with MilliQ water, result for each of two plants): −,−
- HR test, dilution 1:25 ([8]; preparation diluted 1:25 with MilliQ water, result for each of two plants): −,−
- HR test, dilution 1:125 ([8]; preparation diluted 1:125 with MilliQ water, result for each of two plants): −,−
- HR elicitation ([8]; tobacco leaves): −

B2: hypersensitive response elicitor polypeptide or protein derived from Erwinia amylovora: elicitor from Erwinia amylovora, amino acid sequence SEQ ID NO: 23 (protein, listed as Erwinia amylovora)
chain: MSLNTSGLGASTMQISIGGAGGNNGLLGTSRQNAGLGGNSALGLGGGNQNDTVNQLAGLLTGMMMMMSMMGGGGLMGGGLGGGLGNGLGGSGGLGEGLSNALNDMLGGSLNTLGSKGGNNTTSTTNSPLDQALGINSTSQNDDSTSGTDSTSDSSDPMQQLLKMFSEIMQSLFGDGQDGTQGSSSGGKQPTEGEQNAYKKGVTDALSGLMGNGLSQLLGNGGLGGGQGGNAGTGLDGSSLGGKGLQNLSGPVDYQQLGNAVGTGIGMKAGIQALNDIGTHRHSSTRSFVNKGDRAMAKEIGQFMDQYPEVFGKPQYQKGPGQEVKTDDKSWAKALSKPDDDGMTPASMEQFNKAKGMIKRPMAGDTGNGNLQARGAGGSSLGIDAMMAGDAINNMALGKLGAA
- heat stable at 100° C. for [9]: at least 10 minutes

— patent US6858707B1, “Hypersensitive response elicitor fragments which are active but do not elicit a hypersensitive response” (EDEN Bioscience Corporation, priority 1998, dated 2005)
